Results published in the supplement of paper PMC4862054.

What was measured:
Conditions in all cases: incubation time: 72 h
BT-474 [1] = experiment: normalised response (% of control), CellTox Green; higher = less cell death (100 = DMSO, 0 = benzethonium chloride kill control)
Outline: (§1)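 Each entry is the normalised signal at a single concentration within a series. The series comprised 5 concentrations in 10-fold steps over a compound-specific 10,000-fold range, placed in 384-well plates into which breast cancer cell lines were seeded as 20 µl suspension and incubated 72 h. CellTox Green (485/520 nm) fluorescence and then CellTiter-Glo luminescence were read, with signals normalised per plate to 0.1 % DMSO (100) and a positive kill control (0).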

BT-549 [2] = experiment: as above
Outline: as §1

CAL-120 [3] = experiment: as above
Outline: as §1

CAL-148 [4] = experiment: as above
Outline: as §1

CAL-51 [5] = experiment: as above
Outline: as §1

CAL-85-1 [6] = experiment: as above
Outline: as §1

DU-4475 [7] = experiment: as above
Outline: as §1

HCC1143 [8] = experiment: as above
Outline: as §1

HCC1599 [9] = experiment: as above
Outline: as §1

HCC1937 [10] = experiment: as above
Outline: as §1

HDQ-P1 [11] = experiment: as above
Outline: as §1

Hs578T [12] = experiment: as above
Outline: as §1

MCF-10A [13] = experiment: as above
Outline: as §1

MDA-MB-231 [14] = experiment: as above
Outline: as §1

MDA-MB-436 [15] = experiment: as above
Outline: as §1

MDA-MB-453 [16] = experiment: as above
Outline: as §1

MDA-MB-468 [17] = experiment: as above
Outline: as §1

MFM-223 [18] = experiment: as above
Outline: as §1

BT-474 [19] = experiment: normalised response (% of control), CellTiter-Glo; higher = more viable cells (100 = DMSO, 0 = benzethonium chloride kill control)
Experimental: (§2)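 DSRT, 72 h incubation, CellTox Green / CellTiter-Glo readout. Signal is normalised to DMSO and benzethonium chloride controls. Value is the normalised response at the highest dose.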

BT-549 [20] = experiment: as above
Experimental: as §2

CAL-120 [21] = experiment: as above
Experimental: as §2

CAL-148 [22] = experiment: as above
Experimental: as §2

CAL-51 [23] = experiment: as above
Experimental: as §2

CAL-85-1 [24] = experiment: as above
Experimental: as §2

DU-4475 [25] = experiment: as above
Experimental: as §2

HCC1143 [26] = experiment: as above
Experimental: as §2

HCC1599 [27] = experiment: as above
Experimental: as §2

HCC1937 [28] = experiment: as above
Experimental: as §2

HDQ-P1 [29] = experiment: as above
Experimental: as §2

Hs578T [30] = experiment: as above
Experimental: as §2

MCF-10A [31] = experiment: as above
Experimental: as §2

MDA-MB-231 [32] = experiment: as above
Experimental: as §2

MDA-MB-436 [33] = experiment: as above
Experimental: as §2

MDA-MB-453 [34] = experiment: as above
Experimental: as §2

MDA-MB-468 [35] = experiment: as above
Experimental: as §2

MFM-223 [36] = experiment: as above
Experimental: as §2

SK-BR-3 = experiment: as above
Experimental: as §2

Row | SMILES | normalised response (BT-474 [1]) [%] | normalised response (BT-549 [2]) [%] | normalised response (CAL-120 [3]) [%] | normalised response (CAL-148 [4]) [%] | normalised response (CAL-51 [5]) [%] | normalised response (CAL-85-1 [6]) [%] | normalised response (DU-4475 [7]) [%] | normalised response (HCC1143 [8]) [%] | normalised response (HCC1599 [9]) [%] | normalised response (HCC1937 [10]) [%] | normalised response (HDQ-P1 [11]) [%] | normalised response (Hs578T [12]) [%] | normalised response (MCF-10A [13]) [%] | normalised response (MDA-MB-231 [14]) [%] | normalised response (MDA-MB-436 [15]) [%] | normalised response (MDA-MB-453 [16]) [%] | normalised response (MDA-MB-468 [17]) [%] | normalised response (MFM-223 [18]) [%] | normalised response (BT-474 [19]) [%] | normalised response (BT-549 [20]) [%] | normalised response (CAL-120 [21]) [%] | normalised response (CAL-148 [22]) [%] | normalised response (CAL-51 [23]) [%] | normalised response (CAL-85-1 [24]) [%] | normalised response (DU-4475 [25]) [%] | normalised response (HCC1143 [26]) [%] | normalised response (HCC1599 [27]) [%] | normalised response (HCC1937 [28]) [%] | normalised response (HDQ-P1 [29]) [%] | normalised response (Hs578T [30]) [%] | normalised response (MCF-10A [31]) [%] | normalised response (MDA-MB-231 [32]) [%] | normalised response (MDA-MB-436 [33]) [%] | normalised response (MDA-MB-453 [34]) [%] | normalised response (MDA-MB-468 [35]) [%] | normalised response (MFM-223 [36]) [%] | normalised response (SK-BR-3) [%]
1 | CNC(=O)c1ccc(N2C(=S)N(c3ccc(C#N)c(C(F)(F)F)c3)C(=O)C2(C)C)cc1F [Enzalutamide] (10000 nM) | 101 | 70.1 | 104 | 103 | 108 | 85 | 98.2 | 117 | 96.7 | 55.2 | 112 | 112 | 111 | 107 | 96.1 | 95.5 | 87.5 | 106 | 94.3 | 100 | 97.5 | 96.1 | 80.3 | 91.7 | 92.6 | 96.6 | 102 | 92.7 | 86.5 | 105 | 93.4 | 90.2 | 97.2 | 88.5 | 93.7 | 89.3 | 99
2 | CCOC(=O)CCNc1cc(N2CCc3ccccc3CC2)nc(-c2ccccn2)n1 [GSK-J4] (100000 nM) | -13.6 | -16.3 | -21.8 | 3.2 | -10.9 | -35.9 | 79.7 | 24.1 | 70.9 | -33.8 | -15.5 | -146 | -83.7 | -38.5 | -10.7 | 2.15 | -155 | -2.28 | 0.77 | 0.26 | 0.19 | 0.06 | 0.09 | 0.22 | 0.52 | -0.1 | -0.22 | 0.08 | 1.14 | 0.22 | 0.14 | 0.03 | 0.01 | -0.16 | 0.05 | -0.08 | -0.42
3 | Cc1cc(Nc2cc(CN3CCOCC3)c3nc(C)c(Cc4ccc(Cl)cc4F)n3n2)n[nH]1 [Gandotinib] (10000 nM) | 80.9 | 83.8 | 59.9 | 69.7 | 24 | 51.3 | 103 | 100 | 92 | 101 | 102 | -107 | 58.1 | 67.7 | 82 | 88.8 | 11.5 | 76 | 44.5 | 14.2 | 27.9 | 96.7 | 26 | 58.8 | 72.3 | 51.7 | 75.9 | 64.2 | 39.4 | 7.38 | 41.2 | 27.9 | 49 | 120 | 28.5 | 59.8 | 50.8
4 | CNC(=O)c1ccc(N2C(=S)N(c3ccc(C#N)c(C(F)(F)F)c3)C(=O)C23CCC3)cc1F [RD162] (10000 nM) | 103 | 84.9 | 101 | 97.4 | 109 | 91.2 | 98.4 | – | 97.1 | 90.6 | 106 | 110 | 111 | 99.8 | 95.4 | 96.3 | 89.8 | 50.8 | 89.8 | 96.3 | 101 | 105 | 95.3 | 91.5 | 95.5 | 95 | 106 | 93.8 | 92.3 | 101 | 102 | 85.1 | 92.6 | 91.8 | 93.3 | 89.5 | 95.3
5 | S=P(N1CC1)(N1CC1)N1CC1 [Thio-TEPA] (50000 nM) | 101 | 93.5 | 99 | 89.4 | 48.1 | 93.8 | 97.7 | – | 97.7 | 73.4 | 97.6 | – | 97.2 | 113 | 103 | 103 | 119 | 77.7 | 91.7 | 77.2 | 97.2 | 98.1 | 63.8 | 93.7 | 100 | 95.6 | 111 | 93 | 99.7 | 103 | 104 | 94.8 | 104 | 111 | 96.9 | 101 | 101
